Data reported in PubChem BioAssay AID248 (DTP/NCI, 2004).
Several values for one entry are separate records, joined by “and”; a condition that tells them apart may be missing. Equal entries are not always repeated. Toxic doses and inconclusive results are not listed.

System: L1210 leukemia ip in BDF1 mice, survival T/C
Assay: NCI In Vivo Anticancer Drug Screen. Data for tumor model L1210 Leukemia (intraperitoneal) in B6D2F1 (BDF1) mice
Settings: endpoint: mean survival time, higher = longer survival
In short: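 Survival endpoint. Drug-treated group vs vehicle group, expressed as T divided by C. Tumor passaged by transplantation.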

[1] = dose: 100.0 mg/kg/injection, schedule: Q04DX002 (ip), vehicle: saline with Tween-80
[2] = dose: 100.0 mg/kg/injection, schedule: Q01DX001 (ip), vehicle: carboxymethylcellulose (CMC)
[3] = dose: 200.0 mg/kg/injection, schedule: Q01DX001 (ip), vehicle: carboxymethylcellulose (CMC)
[4] = dose: 100.0 mg/kg/injection, schedule: Q04DX003 (ip), vehicle: saline with Tween-80
[5] = dose: 200.0 mg/kg/injection, schedule: Q04DX003 (ip), vehicle: saline with Tween-80
[6] = dose: 400.0 mg/kg/injection, schedule: Q04DX003 (ip), vehicle: saline with Tween-80
[7] = dose: 100.0 mg/kg/injection, schedule: Q01DX009 (ip), vehicle: saline with Tween-80
[8] = dose: 200.0 mg/kg/injection, schedule: Q01DX009 (ip), vehicle: saline with Tween-80
[9] = dose: 400.0 mg/kg/injection, schedule: Q01DX009 (ip), vehicle: saline with Tween-80
[10] = dose: 400.0 mg/kg/injection, schedule: Q04DX002 (ip), vehicle: saline
[11] = dose: 100.0 mg/kg/injection, schedule: Q01DX001 (ip), vehicle: saline
[12] = dose: 200.0 mg/kg/injection, schedule: Q01DX001 (ip), vehicle: saline
[13] = dose: 400.0 mg/kg/injection, schedule: Q01DX001 (ip), vehicle: saline

Cc1[nH]c(=S)oc1C
T/C (dose: 75.0 mg/kg/injection, schedule: Q01DX001 (ip), vehicle: other): 105 % of control | T/C (dose: 150.0 mg/kg/injection, schedule: Q01DX001 (ip), vehicle: other): 97 % of control | T/C (dose: 300.0 mg/kg/injection, schedule: Q01DX001 (ip), vehicle: other): 103 % of control

C[CH2][Pb]([Br])([CH2]C)[CH2]C
T/C (dose: 6.25 mg/kg/injection, schedule: Q01DX009 (ip), vehicle: saline with Tween-80): 103 % of control | T/C (dose: 12.5 mg/kg/injection, schedule: Q01DX009 (ip), vehicle: saline with Tween-80): 103 % of control | T/C (dose: 25.0 mg/kg/injection, schedule: Q01DX009 (ip), vehicle: saline with Tween-80): 94 % of control and 103 % of control | T/C (dose: 25.0 mg/kg/injection, schedule: Q04DX002 (ip), vehicle: saline with Tween-80): 93 % of control | T/C (dose: 50.0 mg/kg/injection, schedule: Q04DX002 (ip), vehicle: saline with Tween-80): 99 % of control | T/C [1]: 96 % of control

Nc1nc2c(nnn2C2OC(COP(=O)(O)O)C(O)C2O)c(=O)[nH]1 (stereo not drawn)
T/C (dose: 2.5 mg/kg/injection, schedule: Q01DX Z (ip), vehicle: other): 89 % of control | T/C (dose: 5.0 mg/kg/injection, schedule: Q01DX Z (ip), vehicle: other): 97 % of control | T/C (dose: 10.0 mg/kg/injection, schedule: Q01DX Z (ip), vehicle: other): 102 % of control | T/C (dose: 20.0 mg/kg/injection, schedule: Q01DX Z (ip), vehicle: other): 118 % of control | T/C (dose: 30.0 mg/kg/injection, schedule: Q01DX Z (ip), vehicle: other): 120 % of control | T/C (dose: 50.0 mg/kg/injection, schedule: Q01DX Z (ip), vehicle: other): 118 % of control

Nc1nc2c(nc(NO)n2C2OC(CO)C(O)C2O)c(=O)[nH]1 (stereo not drawn)
T/C (dose: 50.0 mg/kg/injection, schedule: Q01DX001 (ip), vehicle: carboxymethylcellulose (CMC)): 95 % of control | T/C [2]: 110 % of control | T/C [3]: 101 % of control

CC(=O)OCC(O)C(O)C(O)C(O)CO (stereo not drawn)
T/C [4]: 91 % of control | T/C [5]: 94 % of control | T/C [6]: 91 % of control

O=C1C=C(c2ccccc2)S(=O)(=O)C(c2ccccc2)=C1
T/C (dose: 37.5 mg/kg/injection, schedule: Q04DX002 (ip), vehicle: Klucel (hydroxypropylcellulose) (HPC)): 97 % of control | T/C (dose: 75.0 mg/kg/injection, schedule: Q01DX001 (ip), vehicle: carboxymethylcellulose (CMC)): 124 % of control | T/C (dose: 75.0 mg/kg/injection, schedule: Q04DX002 (ip), vehicle: Klucel (hydroxypropylcellulose) (HPC)): 108 % of control | T/C (dose: 150.0 mg/kg/injection, schedule: Q04DX002 (ip), vehicle: Klucel (hydroxypropylcellulose) (HPC)): 101 % of control

COc1cc(OC)c2c(c1)-n1cccc1C2=O
T/C (dose: 100.0 mg/kg/injection, schedule: Q04DX002 (ip), vehicle: Klucel (hydroxypropylcellulose) (HPC)): 101 % of control | T/C (dose: 200.0 mg/kg/injection, schedule: Q04DX002 (ip), vehicle: Klucel (hydroxypropylcellulose) (HPC)): 104 % of control | T/C (dose: 400.0 mg/kg/injection, schedule: Q04DX002 (ip), vehicle: Klucel (hydroxypropylcellulose) (HPC)): 93 % of control

O=C1CCCCCCCCC1O (stereo not drawn)
T/C [7]: 120 % of control | T/C (dose: 100.0 mg/kg/injection, schedule: Q01DX009 (ip), vehicle: saline): 333 % of control | T/C (dose: 100.0 mg/kg/injection, schedule: Q04DX003 (ip), vehicle: Klucel (hydroxypropylcellulose) (HPC)): 103 % of control | T/C [8]: 101 % of control | T/C (dose: 200.0 mg/kg/injection, schedule: Q01DX009 (ip), vehicle: saline): 114 % of control | T/C (dose: 200.0 mg/kg/injection, schedule: Q04DX003 (ip), vehicle: Klucel (hydroxypropylcellulose) (HPC)): 115 % of control | T/C [9]: 97 % of control | T/C (dose: 400.0 mg/kg/injection, schedule: Q01DX009 (ip), vehicle: saline): 105 % of control | T/C (dose: 400.0 mg/kg/injection, schedule: Q04DX003 (ip), vehicle: Klucel (hydroxypropylcellulose) (HPC)): 108 % of control

CCCCc1c(C)[nH]c(=S)[nH]c1=O
T/C [7]: 95 % of control | T/C [8]: 100 % of control | T/C [9]: 91 % of control

CCCCC(=O)N1C(C)CCCC1C (stereo not drawn)
T/C (dose: 25.0 mg/kg/injection, schedule: Q04DX002 (ip), vehicle: saline): 88 % of control | T/C (dose: 50.0 mg/kg/injection, schedule: Q04DX002 (ip), vehicle: saline): 91 % of control | T/C (dose: 100.0 mg/kg/injection, schedule: Q04DX002 (ip), vehicle: saline): 94 % of control | T/C [10]: 96 % of control

CC1(C#N)CC/C(=C\c2ccc3c(c2)OCO3)C(=O)C1 (stereo not drawn)
T/C (dose: 100.0 mg/kg/injection, schedule: Q04DX003 (ip), vehicle: saline): 96 % of control | T/C (dose: 200.0 mg/kg/injection, schedule: Q04DX003 (ip), vehicle: saline): 91 % of control | T/C (dose: 400.0 mg/kg/injection, schedule: Q04DX003 (ip), vehicle: saline): 107 % of control

N#Cc1cn(C2OC(CO)C(O)C2O)c2ncnc(Cl)c12 (stereo not drawn)
T/C [11]: 103 % of control | T/C [12]: 104 % of control | T/C [13]: 103 % of control

O=C(Oc1ccc(O)cc1)c1ccccc1
T/C (dose: 25.6 mg/kg/injection, schedule: Q04DX002 (ip), vehicle: saline): 88 % of control | T/C (dose: 64.0 mg/kg/injection, schedule: Q04DX002 (ip), vehicle: saline): 95 % of control | T/C (dose: 160.0 mg/kg/injection, schedule: Q04DX002 (ip), vehicle: saline): 92 % of control | T/C [10]: 92 % of control

C[CH2][Pb]([CH2]C)([CH2]C)[O]C(=O)C(Cl)(Cl)Cl
T/C (dose: 0.39 mg/kg/injection, schedule: Q01DX009 (ip), vehicle: other): 101 % of control and 105 % of control | T/C (dose: 0.78 mg/kg/injection, schedule: Q01DX009 (ip), vehicle: other): 102 % of control and 90 % of control | T/C (dose: 1.5 mg/kg/injection, schedule: Q01DX001 (ip), vehicle: other): 113 % of control | T/C (dose: 1.5 mg/kg/injection, schedule: Q04DX002 (ip), vehicle: other): 100 % of control | T/C (dose: 1.56 mg/kg/injection, schedule: Q01DX009 (ip), vehicle: other): 93 % of control | T/C (dose: 3.0 mg/kg/injection, schedule: Q01DX001 (ip), vehicle: other): 103 % of control | T/C (dose: 3.0 mg/kg/injection, schedule: Q04DX002 (ip), vehicle: other): 100 % of control | T/C (dose: 6.0 mg/kg/injection, schedule: Q01DX001 (ip), vehicle: other): 107 % of control | T/C (dose: 6.0 mg/kg/injection, schedule: Q04DX002 (ip), vehicle: other): 109 % of control | T/C (dose: 6.25 mg/kg/injection, schedule: Q04DX003 (ip), vehicle: other): 92 % of control | T/C (dose: 12.0 mg/kg/injection, schedule: Q04DX002 (ip), vehicle: other): 101 % of control | T/C (dose: 12.5 mg/kg/injection, schedule: Q01DX001 (ip), vehicle: other): 89 % of control | T/C (dose: 12.5 mg/kg/injection, schedule: Q04DX003 (ip), vehicle: other): 97 % of control | T/C (dose: 25.0 mg/kg/injection, schedule: Q01DX001 (ip), vehicle: other): 100 % of control | T/C (dose: 25.0 mg/kg/injection, schedule: Q04DX002 (ip), vehicle: carboxymethylcellulose (CMC)): 94 % of control and 102 % of control | T/C (dose: 25.0 mg/kg/injection, schedule: Q04DX003 (ip), vehicle: other): 87 % of control

NS(=O)(=O)c1cc([N+](=O)[O-])ccc1Cl
T/C [4]: 108 % of control | T/C [5]: 111 % of control | T/C [6]: 95 % of control

C1CC2CCCC3CC(B4OCCO4)CC(C1)C23 (stereo not drawn) (tested in a mixture with another compound)
T/C (dose: 100.0 mg/kg/injection, schedule: Q01DX009 (ip), vehicle: other): 101 % of control | T/C [4]: 97 % of control | T/C (dose: 200.0 mg/kg/injection, schedule: Q01DX009 (ip), vehicle: other): 105 % of control | T/C [5]: 92 % of control | T/C (dose: 400.0 mg/kg/injection, schedule: Q01DX009 (ip), vehicle: other): 108 % of control | T/C [6]: 106 % of control

Cc1ccc(NC(=O)COc2c(C)cc(Cl)cc2Cl)cc1
T/C [1]: 107 % of control | T/C (dose: 200.0 mg/kg/injection, schedule: Q04DX002 (ip), vehicle: saline with Tween-80): 96 % of control | T/C (dose: 400.0 mg/kg/injection, schedule: Q04DX002 (ip), vehicle: saline with Tween-80): 93 % of control

CNS(=O)(=O)c1ccccc1C(O)(c1ccccc1)c1ccccc1
T/C [11]: 94 % of control | T/C [12]: 100 % of control | T/C [13]: 111 % of control

CC(=O)Oc1ccc(NC(=O)c2ccccc2)c2ccccc12
T/C [2]: 110 % of control | T/C [3]: 100 % of control | T/C (dose: 400.0 mg/kg/injection, schedule: Q01DX001 (ip), vehicle: carboxymethylcellulose (CMC)): 94 % of control
